{
  "source": "patent USH2260H1",
  "about": "“Stents combined with paclitaxel derivatives” (Angiotech International AG, priority 2005, dated 2011)",
  "key": {"collagenase expression": {"tested_on": "collagenase expression", "assay": "Effect of other anti-microtubules on IL-1 induced collagenase expression in primary chondrocytes", "type": "cell-based, calf", "conditions": "pre-incubation 6 hours, IL-1 20 ng/ml 18 hours; FIGS. 5A-H", "procedure": "Primary chondrocyte cultures were freshly isolated from calf cartilage. The cells were plated at 2.5×10^6 per ml in 100×20 mm culture dishes and incubated in Ham's F12 medium containing 5% FBS overnight at 37° C. The cells were starved in serum-free medium overnight and then treated with anti-microtubule agents at various concentrations for 6 hours. IL-1 (20 ng/ml) was then added to each plate and the plates incubated for an additional 18 hours. Total RNA was isolated by the acidified guanidine isothiocyanate method and subjected to electrophoresis on a denatured gel. Denatured RNA samples (15 μg) were analyzed by gel electrophoresis in a 1% denatured gel, transferred to a nylon membrane and hybridized with the ^32P-labeled collagenase cDNA probe. ^32P-labeled glyceraldehyde phosphate […] (GAPDH) cDNA as an internal standard to ensure roughly equal loading. The exposed films were scanned and quantitatively analyzed with IMAGEQUANT."}, "MMP-1 mRNA (collagenase)": {"tested_on": "MMP-1 mRNA (collagenase)", "assay": "IL-1 induced MMP-1 (collagenase) mRNA expression in chondrocytes, Northern blot", "conditions": "pretreatment 24 hours"}, "MMP-3 mRNA (stromelysin)": {"tested_on": "MMP-3 mRNA (stromelysin)", "assay": "IL-1 induced MMP-3 (stromelysin) mRNA expression in chondrocytes, Northern blot", "conditions": "pretreatment 24 hours"}, "human fibroblasts": {"tested_on": "human fibroblasts", "assay": "Screening assay, cell proliferation of fibroblasts (CYQUANT)", "type": "cell-based", "conditions": "Fibroblast, 72 hours, average of n=4 experiments, FIG. 8", "experimental": "Fibroblasts at 70-90% confluency were trypsinized, replated at 600 cells/well in media in 96-well plates and allowed to attach overnight. Paclitaxel was prepared in DMSO at a concentration of 10^−2 M and diluted 10-fold to give a range of stock concentrations (10^−8 M to 10^−2 M). […] Each drug concentration was tested in triplicate wells.\nTo terminate the assay, the media was removed by gentle aspiration. A 1/400 dilution of CYQUANT 400X GR dye indicator (Molecular Probes; Eugene, Oreg.) was added to 1X Cell Lysis buffer, and 200 μL of the mixture was added to the wells of the plate. Plates were incubated at room temperature, protected from light for 3-5 minutes."}, "[1]": {"tested_on": "Chick Chorioallantoic Membrane (CAM)", "assay": "Chick chorioallantoic membrane (CAM) angiogenesis assay"}, "[2]": {"tested_on": "AP-1 DNA binding activity", "assay": "IL-1 induced AP-1 DNA binding activity, gel mobility shift with chondrocyte extracts", "type": "cell-based", "conditions": "chondrocytes pretreated with 10^−7 to 10^−5 M for 24 hours, IL-1β 20 ng/ml; FIG. 4C", "procedure": "Binding activity was assayed with a radiolabeled human AP-1 sequence probe and gel mobility shift assay. Extracts from chondrocytes untreated or treated with various amounts of paclitaxel (10^−7 to 10^−5 M) followed by IL-1β (20 ng/ml) were incubated with excess probe on ice for 30 minutes, followed by non-denaturing gel electrophoresis. The “com” lane contains excess unlabeled AP-1 oligonucleotide. The results shown are representative of three independent experiments."}},
  "note": "“Also recorded” adds a separate entry of the source.",
  "data": [
    {"smiles": "Nc1ncnc2c1ccn2[C@@H]1O[C@H](CO)[C@@H](O)[C@H]1O", "note": "[tubercidin]", "values": [
      {"measurement": "concentration (as low as) preventing IL-1-induced collagenase expression", "setting": "collagenase expression", "value": 100, "unit": "nM"}
    ]},
    {"smiles": "O=C(CCC(=O)ON1C(=O)CCC1=O)OCCOC(=O)CCC(=O)ON1C(=O)CCC1=O", "note": "[ethylene glycol bis-(succinimidylsuccinate)]", "values": [
      {"measurement": "concentration (as low as) preventing IL-1-induced collagenase expression", "setting": "collagenase expression", "value": 100, "unit": "nM"}
    ]},
    {"smiles": "CC(=O)O[C@H]1C(=O)[C@@]2(C)[C@H]([C@H](OC(=O)c3ccccc3)[C@]3(O)C[C@H](OC(=O)[C@H](O)[C@@H](NC(=O)c4ccccc4)c4ccccc4)C(C)=C1C3(C)C)[C@]1(OC(C)=O)CO[C@@H]1C[C@@H]2O", "note": "[paclitaxel]", "values": [
      {"measurement": "collagenase mRNA inhibition at 10^−5 M", "setting": "MMP-1 mRNA (collagenase); 10^−5 M paclitaxel", "value": "complete inhibition"},
      {"measurement": "collagenase mRNA levels", "setting": "MMP-1 mRNA (collagenase); then IL-1β, FIG. 4D", "value": "inhibited by pretreatment with paclitaxel; also recorded: significantly reduced"},
      {"measurement": "stromelysin mRNA inhibition at 10^−5 M", "setting": "MMP-3 mRNA (stromelysin); 10^−5 M paclitaxel", "value": "complete inhibition"},
      {"measurement": "stromelysin mRNA levels", "setting": "MMP-3 mRNA (stromelysin); then IL-1β, FIG. 4D", "value": "inhibited by pretreatment with paclitaxel; also recorded: significantly reduced"},
      {"measurement": "IC50", "setting": "human fibroblasts", "value": 23, "unit": "nM"},
      {"measurement": "angiogenesis in the CAM", "setting": "[1]; 48 hours after application", "value": "angiogenesis was inhibited"},
      {"measurement": "maximal avascular zone, avascular gradient scale", "setting": "[1]; within 48 hours, depending on concentration", "value": 3},
      {"measurement": "IL-1 induced AP-1 binding activity", "setting": "[2]", "value": "IL-1 induced binding activity decreased"}
    ]},
    {"smiles": "CC(O)CC(C)(C)O", "note": "(centres unmarked) [hexylene glycol]", "values": [
      {"measurement": "concentration (as low as) preventing IL-1-induced collagenase expression", "setting": "collagenase expression", "value": 100, "unit": "nM"}
    ]}
  ]
}
